Results on nine compounds are retold here after patent US12673963B2, “Cationic lipids for lipid nanoparticle delivery of therapeutics to hepatic stellate cells” (GENEVANT SCIENCES GMBH, priority 2020, dated 2026).

Series [1] has as its system reelin mRNA. Briefly: Reelin mRNA knock-down following IV administration of the LNP formulations (FIGS. 1-4). Format: in vivo. The following applies: Balb/C mice (n=4); for dose giving equivalent potency in reelin mRNA knock-down (FIG. 1) / reelin mRNA knock-down in HSCs, specificity for HSCs (FIG. 2): 48 hours following IV administration. How it is done:
(§1) The lipid solution contained 4 components: a PEG-conjugated lipid, an ionizable lipid (e.g., a silicon lipid), cholesterol, and a phospholipid (e.g., DSPC). Lipid stocks were prepared using the lipid identities and molar ratios as described. The siRNA was diluted in 100 mM acetate, pH 4 buffer to prepare lipid nanoparticles (LNP) at a total lipid to siRNA weight ratio of approximately 10:1 to 20:1. Equal volumes of the lipid and nucleic acid solutions were blended at a flow rate of 400 mL/min through a T-connector, and diluted into PBS, pH 7.4. The ethanol was then removed and the external buffer replaced with Tris/NaCl buffer by dialysis. Following dialysis, the formulations were concentrated using VivaSpin concentrator units (MWCO 100,000) and filtered through a 0.2 μm pore sterile filter. Nucleic acid concentration was determined by the RiboGreen assay. Particle size and polydispersity were determined using a Malvern Nano Series Zetasizer.
(§2) Generally, the LNP formulations were injected intravenously at 0.025 mg/kg to female Balb/C mice (5-8 weeks old) to measure activity of the HSC-LNP. Just prior to injection, the siRNA LNP stocks were filtered and diluted down to the required dosing concentration. At 48h post-dose (terminal timepoint), the animals were euthanized with a lethal dose of ketamine/xylazine. Half the left lateral lobe of the liver was collected into 1.5 mL RNALater and stored at 2-8° C. overnight. The next day, an approximately 20-25 mg piece of liver was homogenized and the liver lysate used in a QuantiGene Assay, testing for relative levels of mouse target mRNA and GAPDH expression. Data from each animal was normalized to the liver weight used in the assay, and then relative to the GAPDH signal; data is reported as the average % knock-down of each group (where the PBS control group is 100% gene expression, 0% knock-down).

A short description of series [2]: Clearance of LNP from mouse liver, biodegradable functionality (FIG. 7). Type of series: in vivo.
The nature of series [3]: Tolerability assessment of HSC-LNP: liver enzyme levels (FIGS. 5A-5B). Format: in vivo, female Balb/C mice. The following applies: dose range up to 3 mg/kg IV. The procedure:
Generally, the LNP formulations were injected intravenously at ˜0.03 to 3 mg/kg to female Balb/C mice (5-8 weeks old) to assess tolerability of the HSC-LNP. Just prior to injection, the siRNA LNP stocks were filtered and diluted down to the required dosing concentration. At 2h post-treatment, blood was collected via tail nicks and processed to plasma (for cytokine analysis by ELISA). At the terminal timepoint (24 h post-dose), blood was collected by cardiac puncture (target ≥800 μL) and sent to IDEXX for CRES 15 panel analysis (CBC/Diff & Clin Chem analysis).
Briefly, blood (˜300 uL) was collected into EDTA microtainer tubes, inverted 10× to mix the K2EDTA whole blood sample, and immediately stored at 4° C. to await same-day shipment to for hematology analysis. The remaining blood volume (˜500 uL) was collected into serum separator tubes and inverted 5× to mix the SST sample, then allowed to clot for 1-1.5h at room temp. The blood samples were centrifuged, and serum was collected for clinical chemistry analysis.

The nature of series [4]: Duration of action of LNP with minimally modified siRNA (FIG. 6). Format: in vivo.
Series [5] deals with mouse target mRNA. The series is described as follows: Activity assessment of HSC-LNP: liver target mRNA knock-down (QuantiGene) after IV injection of siRNA LNP (Table 1). Format: in vivo, female Balb/C mice. The following applies: dose 0.025 mg/kg IV, 48h post-dose, relative to PBS control. How it is done: as §1
as §2, with “Just” for “Generally, the LNP formulations were injected intravenously at 0.025 mg/kg to female Balb/C mice (5-8 weeks old) to measure activity of the HSC-LNP. Just”

[6] abbreviates: 24 hours following IV administration.

Each structure is given as a SMILES string.

With `CCCCC/C=C\CCCO[Si](C)(CCCCN(C)CCCN(C)CCCC[Si](C)(OCCC/C=C\CCCCC)OCCC/C=C\CCCCC)OCCC/C=C\CCCCC` [Compound 12, N1,N3-bis(4-(bis(((Z)-dec-4-en-1-yl)oxy)(methyl)silyl)butyl)-N1,N3-dimethylpropane-1,3-diamine], in series [1] (setting [6]), the “dose at which maximum knock-down in HSCs is achieved (FIG. 3)” value is listed as “about 0.03 mg/kg” and the “dose required to achieve equivalent reelin mRNA knock-down (FIG. 4)” value was found to be 0.03 mg/kg. Besides, in series [1], the “dose giving equivalent potency in reelin mRNA knock-down (FIG. 1)” value was 0.025 mg/kg and the “reelin mRNA knock-down in HSCs, specificity for HSCs (FIG. 2)” value was “high specificity for HSCs”. Moreover, the “clearance of LNP from mouse liver (FIG. 7)” value in series [2] was “cleared rapidly from mouse liver”. For the same compound, in series [3], the “tolerability: liver enzyme levels (FIGS. 5A-5B)” value is given as “no significant increases in liver enzyme levels”. For the same compound, the “duration of action (FIG. 6)” value in series [4] is on record as “good duration of action”. Compound `CCCCC/C=C\CCCO[Si](C)(CCCCN1CCC2(CC1)CCN(CCCC[Si](C)(OCCC/C=C\CCCCC)OCCC/C=C\CCCCC)CC2)OCCC/C=C\CCCCC` [Compound 14] yielded a Percent knock-down in series [5] (Formulation 1.1:55 (DOPE)) of 18%.

Compound `CCCCC/C=C\CCCO[Si](C)(CCCCN(CC)CCCN(CC)CCCC[Si](C)(OCCC/C=C\CCCCC)OCCC/C=C\CCCCC)OCCC/C=C\CCCCC` [Compound 29] showed a Percent knock-down in series [5] (Formulation 1.1:55 (DSPC)) of 29%. In the case of `CCCCC/C=C\CCCO[SiH](CCCCN1CCN(C)CCN(CCCC[Si](C)(OCCC/C=C\CCCCC)OCCC/C=C\CCCCC)CC1)OCCC/C=C\CCCCC` [Compound 38], in series [5] (Formulation 1.5:50 (DSPC)), the Percent knock-down was determined as 1%.

The compound `CCCCC/C=C\CCCO[Si](C)(CCCCN1CCC2(CC1)CCN(CCCC[Si](C)(OCCC/C=C\CCCCC)OCCC/C=C\CCCCC)C2)OCCC/C=C\CCCCC` [Compound 39] gave a Percent knock-down in series [5] (Formulation 1.5:50 (DSPC)) of 81%.

As for `CCCCC/C=C\CCCO[Si](C)(CCCCN1CCC2(CC1)CCN(CCCC[Si](C)(OCCC/C=C\CCCCC)OCCC/C=C\CCCCC)CC2)OCCC/C=C\CCCCC` [Compound 42], in series [5] (Formulation 1.5:50 (DSPC)), the Percent knock-down was found to be 28%. Compound `CCCCC/C=C\CCCO[Si](C)(CCCCN1C[C@H]2CCCN(CCCC[Si](C)(OCCC/C=C\CCCCC)OCCC/C=C\CCCCC)[C@H]2C1)OCCC/C=C\CCCCC` [Compound 43] yielded a Percent knock-down in series [5] (Formulation 1.5:50 (DSPC)) of 0%. With `CCCCC/C=C\CCCC(CCC/C=C\CCCCC)C(CCC/C=C\CCCCC)OC(=O)CCCCCN(C)C` (stereo not shown) [Compound 100, reference compound], the “dose required to achieve equivalent reelin mRNA knock-down (FIG. 4)” value in series [1] (setting [6]) was ~1 mg/kg. Further, the “dose giving equivalent potency in reelin mRNA knock-down (FIG. 1)” value in series [1] is listed as 0.1 mg/kg.

In the case of `CCCCC/C=C\CCCC(CCC/C=C\CCCCC)C(CCC/C=C\CCCCC)OC(=O)CCCCN(C)C` (stereo not shown) [Compound 101, reference compound], the “reelin mRNA knock-down in HSCs, specificity for HSCs (FIG. 2)” value in series [1] is on record as “no knock-down in HSCs”.
